Measurements: PMC9246869, “Allosteric inhibition of PPM1D serine/threonine phosphatase via an altered conformational state” (Nature Communications, 2022)
Several values for one entry are separate records, joined by “and”; a condition that tells them apart may be missing. Identical values can stand only once.

What was measured:
[1] = biological target: T1, PPM1D1–420 (Homo sapiens, UniProt O15297); test: FDP (fluorescein diphosphate) enzymatic assay; assay type: biochemical; parameters: FDP assay rate (Fig 3B): unit not given here; conditions: for FDP assay rate (Fig 3B): triplicates; for FDP Assay, signal relative to 0 nM GSK (=100): PPM1D1-420, individual runs, listed as GSK
T1 construct: PPM1D1–420 was PCR-amplified from the synthesized gene with BsaI sites; His(6)-SUMO (N, cleaved yes); made in house; host or cells: E. coli BL21 (DE3)
T1 sequence (O15297 1-420): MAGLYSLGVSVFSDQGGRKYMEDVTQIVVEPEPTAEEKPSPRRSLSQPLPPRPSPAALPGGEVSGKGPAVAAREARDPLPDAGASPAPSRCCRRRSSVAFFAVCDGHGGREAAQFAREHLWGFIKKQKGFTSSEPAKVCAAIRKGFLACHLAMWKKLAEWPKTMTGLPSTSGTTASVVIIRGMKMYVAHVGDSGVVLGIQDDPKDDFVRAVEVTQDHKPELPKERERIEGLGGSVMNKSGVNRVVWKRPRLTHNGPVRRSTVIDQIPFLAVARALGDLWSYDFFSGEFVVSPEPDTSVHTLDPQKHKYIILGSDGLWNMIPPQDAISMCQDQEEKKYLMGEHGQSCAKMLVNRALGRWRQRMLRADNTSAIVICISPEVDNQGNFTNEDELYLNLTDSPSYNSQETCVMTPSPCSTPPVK
Description: The FDP assay was adapted from reported protocol with minor modifications. Fluorescein diphosphate tetra-ammonium salt (CAS 217305-49-2) was purchased from AAT Bioquest (Cat No.11600). The assay was carried out on a 384-well plate (Corning Cat No.3575) with assay buffer containing 50 mM Tris (pH 7.5), 50 mM NaCl, 30 mM MgCl2, 0.01% tween 20, and 2% DMSO. Reactions were initiated with the addition of FDP to a solution containing wild-type PPM1D or one of its variants, to a final concentration of 5 nM for PPM1D and 100 μM for FDP (or as indicated in Kcat/KM measurements). A fluorescent signal was detected on a Spectramax microplate reader (485/530 nm) for the next 15 min at room temperature with an interval for data collection of 45 s. For the IC50 measurement, the compound was pre-incubated with PPM1D for 1 h before addition of the substrate.

[2] = biological target: T1, PPM1D1–420; test: Differential scanning calorimetry (DSC); assay type: binding
Description: (§1) DSC thermograms were recorded in MicroCal DSC from Malvern with an autosampler. For DSC experiments the purified protein constructs were extensively dialyzed against 25 mM HEPES pH 7.5, 10 mM MgCl2, 150 mM NaCl and 1 mM TCEP. The experiments were performed using 0.4 mg/mL concentration of wild-type or mutant protein (8.5–8.9 µM), with and without GSK2830371 compound at 40 µM and 2% DMSO (v/v). The respective reference scans were run under identical DSC set up conditions and subtracted from each sample scan. The program was run in a continuous acquisition mode from 25 °C to 90 °C at a rate of 120 °C/h The heat capacity curves and midpoint temperature (Tm) were analyzed using Origin 7.0 software.

[3] = biological target: T2, PPM1DΔflap (Homo sapiens, UniProt O15297, DEL219-231/DEL235-284/E287S/S285N); test: Differential scanning calorimetry (DSC); assay type: binding; conditions: Supplementary Fig. 5B
T2 construct: PPM1D1–218-GGSNGS-288–420 (PPM1D∆flap); His(6)-SUMO (N, cleaved yes); made in house; host or cells: E. coli BL21 (DE3)
T2 sequence (O15297 with tags, fused parts or gaps DEL219-231/DEL235-284/S285N/E287S): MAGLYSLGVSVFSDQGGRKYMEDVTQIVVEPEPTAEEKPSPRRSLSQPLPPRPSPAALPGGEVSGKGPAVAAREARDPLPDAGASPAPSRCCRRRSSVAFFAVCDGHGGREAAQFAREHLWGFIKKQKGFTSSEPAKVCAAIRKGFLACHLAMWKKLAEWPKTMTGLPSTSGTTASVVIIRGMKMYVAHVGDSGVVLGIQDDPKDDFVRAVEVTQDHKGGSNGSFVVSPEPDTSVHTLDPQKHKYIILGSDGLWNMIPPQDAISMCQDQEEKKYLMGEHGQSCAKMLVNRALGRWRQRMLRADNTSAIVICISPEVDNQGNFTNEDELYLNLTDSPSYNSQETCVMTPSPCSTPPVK
Description: as §1

[4] = source data Fig 3C, with GSK, in °C (unit assumed)

## Cc1ncc(Cl)cc1NCc1ccc(C(=O)N[C@@H](CC2CCCC2)C(=O)NC2CC2)s1 [GSK2830371]
[1]; Michaelis–Menten kinetics, FDP hydrolysis
  mode of inhibition: noncompetitive inhibitor
[1]; PPM1D1–420, compound pre-incubated 1 h
  IC50: ~6 nM
[1]; [FDP] 25 uM, inhibitor 0.98 (unit not given)
  FDP assay rate (Fig 3B): 0.1081 and 0.1018 and 0.09496
[1]; [FDP] 25 uM, inhibitor 1.95 (unit not given)
  FDP assay rate (Fig 3B): 0.0895 and 0.07795 and 0.08008
[1]; [FDP] 25 uM, inhibitor 3.9 (unit not given)
  FDP assay rate (Fig 3B): 0.06795 and 0.05591 and 0.06219
[1]; [FDP] 25 uM, inhibitor 7.8 (unit not given)
  FDP assay rate (Fig 3B): 0.03815 and 0.02398 and 0.0308
[1]; [FDP] 25 uM, inhibitor 15.6 (unit not given)
  FDP assay rate (Fig 3B): 0.01708 and 0.01354 and 0.01271
[1]; [FDP] 50 uM, inhibitor 0.98 (unit not given)
  FDP assay rate (Fig 3B): 0.154 and 0.1613 and 0.1584
[1]; [FDP] 50 uM, inhibitor 1.95 (unit not given)
  FDP assay rate (Fig 3B): 0.1193 and 0.1343 and 0.126
[1]; [FDP] 50 uM, inhibitor 3.9 (unit not given)
  FDP assay rate (Fig 3B): 0.09839 and 0.1118 and 0.09908
[1]; [FDP] 50 uM, inhibitor 7.8 (unit not given)
  FDP assay rate (Fig 3B): 0.04672 and 0.06633 and 0.05157
[1]; [FDP] 50 uM, inhibitor 15.6 (unit not given)
  FDP assay rate (Fig 3B): 0.02583 and 0.03504 and 0.03088
[1]; [FDP] 100 uM, inhibitor 0.98 (unit not given)
  FDP assay rate (Fig 3B): 0.2227 and 0.2316 and 0.2315
[1]; [FDP] 100 uM, inhibitor 1.95 (unit not given)
  FDP assay rate (Fig 3B): 0.1741 and 0.1931 and 0.1914
[1]; [FDP] 100 uM, inhibitor 3.9 (unit not given)
  FDP assay rate (Fig 3B): 0.1254 and 0.1375 and 0.1433
[1]; [FDP] 100 uM, inhibitor 7.8 (unit not given)
  FDP assay rate (Fig 3B): 0.08834 and 0.102 and 0.1128
[1]; [FDP] 100 uM, inhibitor 15.6 (unit not given)
  FDP assay rate (Fig 3B): 0.04867 and 0.06283 and 0.04506
[1]; [FDP] 100 uM, inhibitor 31.3 (unit not given)
  FDP assay rate (Fig 3B): 0.02471 and 0.03171 and 0.02136
[1]; [FDP] 200 uM, inhibitor 0.98 (unit not given)
  FDP assay rate (Fig 3B): 0.2541 and 0.2837 and 0.2718
[1]; [FDP] 200 uM, inhibitor 1.95 (unit not given)
  FDP assay rate (Fig 3B): 0.1754 and 0.2253 and 0.2249
[1]; [FDP] 200 uM, inhibitor 3.9 (unit not given)
  FDP assay rate (Fig 3B): 0.1214 and 0.1628 and 0.1643
[1]; [FDP] 200 uM, inhibitor 7.8 (unit not given)
  FDP assay rate (Fig 3B): 0.119 and 0.111 and 0.098
[1]; [FDP] 200 uM, inhibitor 15.6 (unit not given)
  FDP assay rate (Fig 3B): 0.06395 and 0.07091 and 0.07759
[1]; [FDP] 200 uM, inhibitor 31.3 (unit not given)
  FDP assay rate (Fig 3B): 0.03445 and 0.04201 and 0.04948
[1]; [FDP] 200 uM, inhibitor 62.5 (unit not given)
  FDP assay rate (Fig 3B): 0.03178 and 0.03296 and 0.03025
[1]; [FDP] 400 uM, inhibitor 0.98 (unit not given)
  FDP assay rate (Fig 3B): 0.3661 and 0.3766 and 0.3211
[1]; [FDP] 400 uM, inhibitor 1.95 (unit not given)
  FDP assay rate (Fig 3B): 0.2969 and 0.3135 and 0.2543
[1]; [FDP] 400 uM, inhibitor 3.9 (unit not given)
  FDP assay rate (Fig 3B): 0.2182 and 0.2333 and 0.1765
[1]; [FDP] 400 uM, inhibitor 7.8 (unit not given)
  FDP assay rate (Fig 3B): 0.2094 and 0.221 and 0.1442
[1]; [FDP] 400 uM, inhibitor 15.6 (unit not given)
  FDP assay rate (Fig 3B): 0.1122 and 0.1116 and 0.1013
[1]; [FDP] 400 uM, inhibitor 31.3 (unit not given)
  FDP assay rate (Fig 3B): 0.06577 and 0.07799 and 0.08598
[1]; [FDP] 400 uM, inhibitor 62.5 (unit not given)
  FDP assay rate (Fig 3B): 0.04782 and 0.06273 and 0.0378
[1]; [FDP] 400 uM, inhibitor 125 (unit not given)
  FDP assay rate (Fig 3B): 0.03598 and 0.04023 and 0.04026
[1]; [GSK] 0.292969 nM
  FDP Assay, signal relative to 0 nM GSK (=100): 86.8743 and 86.4893
[1]; [GSK] 0.585938 nM
  FDP Assay, signal relative to 0 nM GSK (=100): 87.0301 and 86.6545
[1]; [GSK] 1.17188 nM
  FDP Assay, signal relative to 0 nM GSK (=100): 79.2709 and 79.2522
[1]; [GSK] 2.34375 nM
  FDP Assay, signal relative to 0 nM GSK (=100): 68.8335 and 60.4469
[1]; [GSK] 4.6875 nM
  FDP Assay, signal relative to 0 nM GSK (=100): 48.948 and 39.1972
[1]; [GSK] 9.375 nM
  FDP Assay, signal relative to 0 nM GSK (=100): 35.4075 and 36.7435
[1]; [GSK] 18.75 nM
  FDP Assay, signal relative to 0 nM GSK (=100): 24.9745 and 29.6638
[1]; [GSK] 37.5 nM
  FDP Assay, signal relative to 0 nM GSK (=100): 10.1395 and 7.848
[1]; [GSK] 75 nM
  FDP Assay, signal relative to 0 nM GSK (=100): 7.727 and 7.844
[1]; [GSK] 150 nM
  FDP Assay, signal relative to 0 nM GSK (=100): 2.646 and -0.6809
[1]; [GSK] 300 nM
  FDP Assay, signal relative to 0 nM GSK (=100): 0.03588 and 0.07574
[2]; PPM1D1–420, 40 µM compound, read-out: thermal shift by DSC
  ΔTm at 40 µM: 8 °C
[2]; Sup Fig 2D, protein with GSK vs WT alone, trial 1
  DSC Trial 1 (melting temperature): 62.26 ˚C
[2]; Sup Fig 2D, protein with GSK vs WT alone, trial 2
  DSC Trial 2 (melting temperature): 62.33 ˚C
[2]; Sup Fig 2D, protein with GSK vs WT alone, trial 3
  DSC Trial 3 (melting temperature): 62.14 ˚C
[2]; Sup Fig 2D, protein with GSK, average of trials
  DSC Average (melting temperature): 62.2433 ˚C
[2]; [4]
  DSC Average (Tm): 62.2433
  DSC Trial 1 (Tm): 62.26
  DSC Trial 2 (Tm): 62.33
  DSC Trial 3 (Tm): 62.14
[3]
  thermal shift by DSC: +8.5 °C
